Measurements from US20160271160A1, “HCV POLYMERASE INHIBITORS” (MEDIVIR AB, priority 2013, published 2016).

Tests used:
Type in all cases: cell-based
HCV GT1b (transient) = HCV GT1b (transient) replicon; conditions: Hepatitis C virus, wild type, geometric mean
Description: (§1) The compound of Example 2 was further evaluated to assess the antiviral activity against genotypes 1-6 of HCV, both wild type and a number of clinically relevant mutant strains. The result of the evaluation together with the average EC50 of a genotypes and the corresponding values for compound 40ii of WO2014/058801 are summarised in Tables 2 and 3.

HCV GT4a S282T = HCV GT4a S282T chimeric mutant replicon
Description: as §1

[1] = system: HCV GT4a NS5B in con1 background; experiment: HCV GT4a chimeric replicon; conditions: Hepatitis C virus
Description: as §1

[2] = system: HCV GT6a NS5B in con1 background; experiment: HCV GT6a chimeric replicon; conditions: Hepatitis C virus
Description: as §1

[3] = system: HCV GT3a NS5B in con1 background; experiment: HCV GT3a chimeric replicon; conditions: Hepatitis C virus
Description: as §1

[4] = system: genotypes 1-6 of HCV, wild type; experiment: Wild type HCV genotype panel, average
Description: as §1

HCV GT1a S282T = HCV GT1a S282T chimeric mutant replicon
Description: as §1

HCV GT1b S282T = HCV GT1b S282T mutant replicon
Description: as §1

HCV GT1b (stable) = HCV GT1b (stable) replicon; conditions: Hepatitis C virus, wild type, geometric mean
Description: as §1

HCV GT2a virus = experiment: HCV GT2a virus; conditions: Hepatitis C virus, wild type, geometric mean
Description: as §1

[5] = system: HCV GT5a NS5B in con1 background; experiment: HCV GT5a chimeric replicon; conditions: Hepatitis C virus
Description: as §1

HCV GT3a S282T = HCV GT3a S282T chimeric mutant replicon
Description: as §1

[6] = system: HCV GT1a NS5B in con1 background; experiment: HCV GT1a chimeric replicon; conditions: Hepatitis C virus
Description: as §1

HCV mutant strains = experiment: Mutant HCV panel, average
Description: as §1

With CC(C)OC(=O)[C@H](C)OP(=O)(OC[C@H]1O[C@@H](n2ccc(=O)[nH]c2=O)[C@](C)(Cl)[C@@H]1O)Oc1ccccc1 (some centres unmarked) [Cpd. 40ii of WO2014/058801] the EC50 (HCV GT1b (transient)) was 93 nM, the “FC vs WT” value (HCV GT4a S282T; HCV GT4a S282T, fold change of EC50) was 12 and the EC50 (HCV GT4a S282T; Hepatitis C virus, GT4A) was 1720 nM. For the same compound, the EC50 [1] was 149 nM, the EC50 [2] was 170 nM and the EC50 [3] was 139 nM. The EC50 ([4]; Hepatitis C virus, wild type assays, arithmetic mean +/− SEM) was 114 nM, the “potency increase vs cpd. 40ii of WO2014/058801” value ([4]; wild type, from AVG EC50) was 1.0 and the “FC vs WT” value (HCV GT1a S282T; HCV GT1a S282T, fold change of EC50) was 4.0. For the same compound, the EC50 (HCV GT1a S282T; Hepatitis C virus, GT1A) was 554 nM, the EC50 (HCV GT1b S282T; Hepatitis C virus, geometric mean) was 344 nM and the “FC vs WT” value (HCV GT1b S282T; fold change of EC50) was 3.7. For the same compound, the EC50 (HCV GT1b (stable)) was 91 nM, the EC50 (HCV GT2a virus) was 26 nM and the EC50 [5] was 105 nM. For the same compound, the “FC vs WT” value (HCV GT3a S282T; HCV GT3a S282T, fold change of EC50) was 2.6, the EC50 (HCV GT3a S282T; Hepatitis C virus, GT3A) was 366 nM and the EC50 [6] was 140 nM. The EC50 (HCV mutant strains; Hepatitis C virus, read-out: AVG EC50) was 746 nM and the “potency increase vs cpd. 40ii of WO2014/058801” value (HCV mutant strains; {}) was 1.0.
